Legend:
Experiment in all cases: Test B pre-/postemergence plant response
Type in all cases: in vivo
[1] = tested on: corn (Zea mays); conditions: for Corn plant response rating: 8 g ai/ha
In short: (§1)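 Visual scoring from 0 (no effect) to 100 (complete control) against untreated controls was done 13 to 15 days after greenhouse treatment. Chemicals were formulated in a surfactant-containing non-phytotoxic solvent and applied to soil preemergence or to 1- to 4-leaf (2-18 cm) plants postemergence.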

[2] = tested on: lambsquarters (Chenopodium album); conditions: for Lambsquarters plant response rating: 8 g ai/ha
In short: as §1

[3] = tested on: catchweed bedstraw (Galium aparine); conditions: Preemergence; for Galium plant response rating: 8 g ai/ha
In short: as §1

[4] = tested on: green foxtail (Setaria viridis); conditions: for Foxtail, Green plant response rating: 8 g ai/ha
In short: as §1

[5] = tested on: downy bromegrass (Bromus tectorum); conditions: for Bromegrass, Downy plant response rating: 8 g ai/ha
In short: as §1

[6] = tested on: velvetleaf (Abutilon theophrasti); conditions: for Velvetleaf plant response rating: 8 g ai/ha
In short: as §1

[7] = tested on: common (oilseed) sunflower (Helianthus annuus); conditions: Preemergence; for Sunflower plant response rating: 8 g ai/ha
In short: as §1

[8] = tested on: bermudagrass (Cynodon dactylon); conditions: for Bermudagrass plant response rating: 8 g ai/ha
In short: as §1

[9] = tested on: large crabgrass (Digitaria sanguinalis); conditions: for Crabgrass, Large plant response rating: 8 g ai/ha
In short: as §1

[10] = tested on: giant foxtail (Setaria faberii); conditions: for Foxtail, Giant plant response rating: 8 g ai/ha
In short: as §1

[11] = tested on: morningglory (Ipomoea coccinea); conditions: for Morningglory plant response rating: 8 g ai/ha
In short: as §1

[12] = tested on: wild oat (Avena fatua); conditions: for Oat, Wild plant response rating: 8 g ai/ha
In short: as §1

[13] = tested on: blackgrass (Alopecurus myosuroides); conditions: for Blackgrass plant response rating: 8 g ai/ha
In short: as §1

[14] = tested on: wheat (Triticum aestivum); conditions: for Wheat plant response rating: 8 g ai/ha
In short: as §1

[15] = Postemergence, 16 g ai/ha, scale 0 to 100
[16] = Postemergence, 31 g ai/ha, scale 0 to 100, 0 no effect, 100 complete control
[17] = Postemergence, 62 g ai/ha, scale 0 to 100, 0 no effect, 100 complete control
[18] = Preemergence, 16 g ai/ha, scale 0 to 100 (0 no effect, 100 complete control)
[19] = Preemergence, 31 g ai/ha, 0 to 100 scale, 0 no effect, 100 complete control
[20] = Preemergence, 62 g ai/ha, scale 0 to 100
[21] = 16 g ai/ha, scale 0 to 100 (0 no effect, 100 complete control)
[22] = 31 g ai/ha, 0 to 100 scale, 0 no effect, 100 complete control
[23] = Preemergence, scale 0 to 100 (0 no effect, 100 complete control)

COC(=O)Oc1cnn(C)c(=O)c1-n1nc(-c2ccc(Cl)cc2)cc1C [Compound 33]
100: Plant response rating, Corn [1, 16] | Plant response rating, Corn [1, 17] | Plant response rating, Foxtail, Green [4, 16] | Plant response rating, Foxtail, Green [4, 17] | Plant response rating, Foxtail, Green [4, 18] | Plant response rating, Foxtail, Green [4, 19] | Plant response rating, Foxtail, Green [4, 20] | Foxtail, Green plant response rating ([4]; Preemergence, scale 0 to 100) | Plant response rating, Bromegrass, Downy [5, 20] | Plant response rating, Bermudagrass [8, 15] | Plant response rating, Bermudagrass [8, 16] | Plant response rating, Bermudagrass [8, 17] | Plant response rating, Bermudagrass [8, 19] | Plant response rating, Bermudagrass [8, 20] | Plant response rating, Crabgrass, Large [9, 17] | Foxtail, Giant plant response rating ([10]; postemergence, 0-100 scale) | Plant response rating, Foxtail, Giant [10, 15] | Plant response rating, Foxtail, Giant [10, 16] | Plant response rating, Foxtail, Giant [10, 17] | Plant response rating, Foxtail, Giant [10, 18] | Plant response rating, Foxtail, Giant [10, 19] | Plant response rating, Foxtail, Giant [10, 20] | Foxtail, Giant plant response rating ([10]; Preemergence, scale 0 to 100) | Plant response rating, Blackgrass [13, 18] | Plant response rating, Blackgrass [13, 19] | Plant response rating, Blackgrass [13, 20]
50: Corn plant response rating ([1]; Preemergence, scale 0 to 100) | Plant response rating, Bromegrass, Downy [5, 15] | Plant response rating, Wheat [14, 19]
60: Blackgrass plant response rating ([13]; Preemergence, scale 0 to 100)
98: Plant response rating, Bermudagrass [8, 18] | Plant response rating, Crabgrass, Large [9, 20] | Plant response rating, Oat, Wild [12, 17] | Plant response rating, Wheat [14, 17]
80: Corn plant response rating ([1]; postemergence, 0-100 scale) | Plant response rating, Bromegrass, Downy [5, 17] | Plant response rating, Bromegrass, Downy [5, 19] | Bermudagrass plant response rating [8, 23] | Plant response rating, Oat, Wild [12, 18] | Plant response rating, Oat, Wild [12, 19] | Plant response rating, Blackgrass [13, 16] | Plant response rating, Wheat [14, 20]
70: Plant response rating, Bromegrass, Downy [5, 16] | Bermudagrass plant response rating ([8]; postemergence, 0-100 scale) | Crabgrass, Large plant response rating ([9]; postemergence, 0-100 scale) | Crabgrass, Large plant response rating ([9]; Preemergence, scale 0 to 100) | Oat, Wild plant response rating ([12]; Preemergence, scale 0 to 100) | Blackgrass plant response rating ([13]; postemergence, 0-100 scale) | Plant response rating, Blackgrass [13, 15] | Plant response rating, Wheat [14, 15]
95: Plant response rating, Corn [1, 15] | Plant response rating, Corn [1, 20] | Plant response rating, Crabgrass, Large [9, 18] | Plant response rating, Crabgrass, Large [9, 19] | Plant response rating, Oat, Wild [12, 15] | Plant response rating, Oat, Wild [12, 16] | Plant response rating, Blackgrass [13, 17]
90: Plant response rating, Corn [1, 19] | Plant response rating, Crabgrass, Large [9, 15] | Plant response rating, Crabgrass, Large [9, 16] | Oat, Wild plant response rating ([12]; postemergence, 0-100 scale) | Plant response rating, Oat, Wild [12, 20]
20: Wheat plant response rating ([14]; postemergence, 0-100 scale)
0: Lambsquarters plant response rating ([2]; postemergence, 0-100 scale) | Plant response rating, Lambsquarters [2, 15] | Plant response rating, Lambsquarters [2, 16] | Plant response rating, Lambsquarters [2, 17] | Plant response rating, Lambsquarters [2, 18] | Plant response rating, Lambsquarters [2, 19] | Plant response rating, Lambsquarters [2, 20] | Lambsquarters plant response rating ([2]; Preemergence, scale 0 to 100) | Plant response rating, Galium [3, 21] | Plant response rating, Galium [3, 22] | Plant response rating, Galium ([3]; 62 g ai/ha, scale 0 to 100) | Galium plant response rating ([3]; scale 0 to 100) | Plant response rating, Bromegrass, Downy [5, 18] | Bromegrass, Downy plant response rating ([5]; Preemergence, scale 0 to 100) | Velvetleaf plant response rating ([6]; postemergence, 0-100 scale) | Plant response rating, Velvetleaf [6, 15] | Plant response rating, Velvetleaf [6, 18] | Plant response rating, Velvetleaf [6, 19] | Velvetleaf plant response rating ([6]; Preemergence, scale 0 to 100) | Plant response rating, Sunflower [7, 21] | Plant response rating, Sunflower [7, 22] | Plant response rating, Sunflower ([7]; 62 g ai/ha, scale 0 to 100) | Sunflower plant response rating ([7]; scale 0 to 100) | Morningglory plant response rating ([11]; postemergence, 0-100 scale) | Plant response rating, Morningglory [11, 15] | Plant response rating, Morningglory [11, 16] | Plant response rating, Morningglory [11, 17] | Plant response rating, Morningglory [11, 18] | Plant response rating, Morningglory [11, 19] | Plant response rating, Morningglory [11, 20] | Morningglory plant response rating ([11]; Preemergence, scale 0 to 100) | Plant response rating, Wheat [14, 18] | Wheat plant response rating ([14]; Preemergence, scale 0 to 100)
85: Plant response rating, Corn [1, 18] | Foxtail, Green plant response rating ([4]; postemergence, 0-100 scale) | Plant response rating, Foxtail, Green [4, 15]
5: Bromegrass, Downy plant response rating ([5]; postemergence, 0-100 scale) | Plant response rating, Velvetleaf [6, 17]

Cn1ncc(O)c(-c2nn(-c3ccc(Cl)cc3)cc2Br)c1=O [Compound 31]
90: Plant response rating, Corn [1, 20] | Plant response rating, Crabgrass, Large [9, 18] | Plant response rating, Foxtail, Giant [10, 18] | Foxtail, Giant plant response rating ([10]; Preemergence, scale 0 to 100) | Plant response rating, Oat, Wild [12, 20] | Plant response rating, Blackgrass [13, 18]
50: Plant response rating, Galium ([3]; 62 g ai/ha, scale 0 to 100)
80: Crabgrass, Large plant response rating ([9]; Preemergence, scale 0 to 100) | Blackgrass plant response rating ([13]; Preemergence, scale 0 to 100) | Plant response rating, Wheat [14, 20]
95: Bermudagrass plant response rating [8, 23]
0: Plant response rating, Corn [1, 18] | Plant response rating, Lambsquarters [2, 18] | Plant response rating, Lambsquarters [2, 19] | Plant response rating, Lambsquarters [2, 20] | Lambsquarters plant response rating ([2]; Preemergence, scale 0 to 100) | Plant response rating, Galium [3, 21] | Plant response rating, Galium [3, 22] | Galium plant response rating ([3]; scale 0 to 100) | Plant response rating, Bromegrass, Downy [5, 18] | Bromegrass, Downy plant response rating ([5]; Preemergence, scale 0 to 100) | Plant response rating, Velvetleaf [6, 18] | Plant response rating, Velvetleaf [6, 19] | Plant response rating, Velvetleaf [6, 20] | Velvetleaf plant response rating ([6]; Preemergence, scale 0 to 100) | Plant response rating, Sunflower [7, 21] | Plant response rating, Sunflower [7, 22] | Plant response rating, Sunflower ([7]; 62 g ai/ha, scale 0 to 100) | Sunflower plant response rating ([7]; scale 0 to 100) | Plant response rating, Morningglory [11, 18] | Plant response rating, Morningglory [11, 19] | Plant response rating, Morningglory [11, 20] | Morningglory plant response rating ([11]; Preemergence, scale 0 to 100) | Plant response rating, Wheat [14, 18] | Plant response rating, Wheat [14, 19] | Wheat plant response rating ([14]; Preemergence, scale 0 to 100)
45: Plant response rating, Oat, Wild [12, 18]
60: Plant response rating, Corn [1, 19]
65: Foxtail, Green plant response rating ([4]; Preemergence, scale 0 to 100) | Plant response rating, Bromegrass, Downy [5, 19]
100: Plant response rating, Foxtail, Green [4, 19] | Plant response rating, Foxtail, Green [4, 20] | Plant response rating, Bermudagrass [8, 18] | Plant response rating, Bermudagrass [8, 19] | Plant response rating, Bermudagrass [8, 20] | Plant response rating, Crabgrass, Large [9, 19] | Plant response rating, Crabgrass, Large [9, 20] | Plant response rating, Foxtail, Giant [10, 19] | Plant response rating, Foxtail, Giant [10, 20] | Plant response rating, Blackgrass [13, 20]
98: Plant response rating, Foxtail, Green [4, 18] | Plant response rating, Blackgrass [13, 19]
85: Plant response rating, Bromegrass, Downy [5, 20]
70: Plant response rating, Oat, Wild [12, 19]

Reference: patent publication US20100267561A1, “HERBICIDAL PYRIDAZINONE DERIVATIVES” (priority 2007, published 2010)
